This is an account of results in US20240316074A1 (priority 2021, published 2024).

Series [1] concerns the target T1, SARS-CoV-2 spike protein S1 subunit (Severe acute respiratory syndrome coronavirus 2, UniProt P0DTC2).
T1 construct: Recombinant SARS-CoV-2 spike protein S1 subunit (˜72 kDa) containing an N-terminal His-tag; purchased RayBiotech (Peachtree Corners, GA)
The class given is binding.

In series [2] the target is T2, transporter ABCG2 (also called BCRP) (Homo sapiens, UniProt Q9UNQ0).
T2 sequence (Q9UNQ0 1-655): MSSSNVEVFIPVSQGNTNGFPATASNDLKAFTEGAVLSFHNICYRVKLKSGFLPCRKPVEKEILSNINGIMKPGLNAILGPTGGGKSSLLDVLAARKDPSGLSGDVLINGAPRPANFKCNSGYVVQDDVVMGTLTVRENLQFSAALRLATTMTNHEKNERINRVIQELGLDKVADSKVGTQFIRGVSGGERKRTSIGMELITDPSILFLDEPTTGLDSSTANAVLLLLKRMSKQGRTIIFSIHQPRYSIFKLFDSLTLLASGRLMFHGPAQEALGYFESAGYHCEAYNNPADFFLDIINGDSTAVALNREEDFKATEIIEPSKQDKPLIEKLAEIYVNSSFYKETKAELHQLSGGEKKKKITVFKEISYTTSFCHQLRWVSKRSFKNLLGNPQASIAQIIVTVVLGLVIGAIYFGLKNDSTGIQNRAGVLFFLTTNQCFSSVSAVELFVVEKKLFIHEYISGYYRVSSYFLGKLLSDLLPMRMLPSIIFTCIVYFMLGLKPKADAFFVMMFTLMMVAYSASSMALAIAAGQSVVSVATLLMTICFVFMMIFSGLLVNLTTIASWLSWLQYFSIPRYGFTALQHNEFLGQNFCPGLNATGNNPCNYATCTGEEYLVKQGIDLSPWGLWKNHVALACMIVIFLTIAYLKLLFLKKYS
Particulars: cited from earlier work.

The target in series [3] is T3, SARS-CoV-2 S1 protein (Severe acute respiratory syndrome coronavirus 2, UniProt P0DTC2).
T3 construct: Recombinant SARS-CoV-2 spike protein S1 subunit (˜72 kDa) containing an N-terminal His-tag; purchased RayBiotech (S1); LifeTein (SBP-1 peptide)
The series can be described thus: MagMASS competition assay with SBP-1 (binding site determination).

In series [4] the target is T1, SARS-CoV-2 spike protein S1 subunit. The series can be described thus: Equilibrium dissociation constants by rapid equilibrium dialysis. The following applies: 37° C., PBS pH 7.2. The class given is binding. The procedure:
Equilibrium dissociation constants. The affinity constants for the binding of active compounds to the spike protein S1 subunit were determined by rapid equilibrium dialysis. First, the optimum time for full equilibration of the RED device obtained from ThermoFisher (Waltham, MA) was determined with each of the compounds by adding 1 μM spike protein in buffer (300 μL) to the protein chamber and adding blank phosphate buffered saline, pH 7.2 (500 μL) to the buffer chamber. CBGA or CBDA was spiked into the protein chamber at a final concentration of 2.5 μM. […] After centrifugation at 18,000 g for 30 min, the supernatant was removed and ligand concentration was measured using UHPLC-MS/MS. Next, the equilibrium dissociation constants of CBGA and CBDA were determined by incubating the spike protein S1 subunit with different concentrations of the ligands ranging from 0.05-500 μM in triplicate. After 5 h for CBGA or 4 h for CBDA, the concentrations of each ligand in the sample and buffer chambers were measured using UHPLC-MS/MS as described above. Data analysis and fitting was carried out using Microsoft Excel (Seattle, WA) and KaleidaGraph v4.1 (Reading, PA).
A general note: Equilibrium dialysis compares concentrations on both sides of a semipermeable membrane.

The subject of series [5] is SARS-CoV-2 (WA1/2020). The series can be described thus: microbe, parasite or virus in culture. The class given is cell-based. The following applies: Severe acute respiratory syndrome coronavirus 2, Vero C1008.
Series [6] relates to SARS-CoV-2 (WA1/2020). The class given is cell-based.
The conditions of series [7]: beagle dogs, oral, 1 mg/kg; cited from earlier work.
For series [8] the following is noted: human volunteers, oral, 0.063 mg/kg; cited from earlier work.

≈ marks a conversion by molar mass, not a printed value.

As to `CCCCCc1cc(O)c(C/C=C(\C)CCC=C(C)C)c(O)c1` [CBG, Cannabigerol], in series [1], the “Fold Peak Area Enrichment, Standards mixture” value turned out to be 3.4 ± 0.82; the “Fold peak area enrichment” value stood at 3.4 ± 0.82; the “binding in competitive binding MagMASS assays” value was “weak or no binding”. The “inhibition of the transporter ABCG2” value in series [2] is listed as “inhibitors”.

For the molecule `CCCCCc1cc(O)c2c(c1)OC(C)(C)c1ccc(C)cc1-2` [CBN, Cannabinol], in series [1], the “Fold Peak Area Enrichment, Standards mixture” value is given as 3.4 ± 0.78; the “Fold peak area enrichment” value turned out to be 3.4 ± 0.78; the “binding in competitive binding MagMASS assays” value was “weak or no binding”.

As to `CCCCCc1cc2c(c(O)c1C(=O)O)-c1cc(C)ccc1C(C)(C)O2` [CBNA, Cannabinolic acid], the “Fold peak area enrichment” value in series [1] was 5.6 ± 1.4.

`C=C(C)[C@@H]1CCC(C)=C[C@H]1c1c(O)cc(CCC)cc1O` [CBDV, Cannabidivarin]: in series [1], the “Fold Peak Area Enrichment, Standards mixture” value is given as 1.6 ± 0.17 and the “Fold peak area enrichment” value was determined as 1.6 ± 0.17.

As to `CCN(CC)CCCC(C)Nc1c2ccc(Cl)cc2nc2ccc(OC)cc12` (stereo not drawn) [quinacrine], the “binding to the immobilized S1 protein in the MagMASS assay” value (“binding to the immobilized S1 protein” below) in series [1] is listed as “no binding”.

With `COc1c(C)c2c(c(O)c1C/C=C(\C)CCC(=O)O)C(=O)OC2` [mycophenolic acid], the “binding to the immobilized S1 protein” value in series [1] is recorded as “no binding”.

With `CCCCCc1cc2c(c(O)c1C(=O)O)[C@@H]1C=C(C)CC[C@H]1C(C)(C)O2` [THCA-A, Tetrahydrocannabinolic acid], in series [1], the “Fold Peak Area Enrichment, Pure compound” value was determined as 19.7 ± 2.0; the “Fold Peak Area Enrichment, Standards mixture” value stood at 16.7 ± 2.2; the “Fold peak area enrichment” value was 16.7 ± 2.2.

On to `C=C(C)[C@@H]1CCC(C)=C[C@H]1c1c(O)cc(CCCCC)cc1OC` [CBD-OMe], for which, in series [1], the “Fold Peak Area Enrichment, Pure compound” value worked out at 1.5 ± 0.12.

As to `C=CC(C)(C)c1cc(/C=C/C(=O)c2ccc(O)cc2)c(OC)cc1O` [licochalcone A], the “binding in the presence of SBP-1” value in series [3] (2.8 μM SBP-1) is recorded as “reduced”. For the same molecule, the “MagMASS peak area enrichment lowered when SBP-1 was added” value in series [3] (SBP-1 added to incubation with active S1 protein) was found to be 3 fold.

For `CCCCCc1cc(O)c2c(c1)OC(C)(CCC=C(C)C)C=C2` (stereo not drawn) [CBC, Cannabichromene], in series [1], the “Fold Peak Area Enrichment, Standards mixture” value stood at 2.9 ± 0.75; the “Fold peak area enrichment” value was found to be 2.9 ± 0.75; the “binding in competitive binding MagMASS assays” value was “weak or no binding”.

Regarding `C=C(C)[C@@H]1CCC(C)=C[C@H]1c1c(O)cc(CCCCC)cc1O` [CBD, Cannabidiol], in series [1], the “Fold Peak Area Enrichment, Standards mixture” value came out at 2.9 ± 0.72; the “Fold peak area enrichment” value is given as 2.9 ± 0.72; the “binding in competitive binding MagMASS assays” value is recorded as “weak or no binding”. Besides, the “inhibition of the transporter ABCG2” value in series [2] is reported as “inhibitors”.

For the molecule `CCCCCc1cc(O)c2c(c1)OC(C)(C)[C@@H]1CCC(C)=C[C@@H]21` [Δ^9-THC, Δ^9-Tetrahydrocannabinol], in series [1], the “Fold Peak Area Enrichment, Standards mixture” value was 3.0 ± 0.77; the “Fold peak area enrichment” value amounted to 3.0 ± 0.77; the “binding in competitive binding MagMASS assays” value is given as “weak or no binding”.

With `CCCCCc1cc(O)c(C/C=C(\C)CCC=C(C)C)c(O)c1C(=O)O` [CBGA, Cannabigerolic acid], binding in series [4] was put at a Kd of 19.8 ± 2.7 µM. In series [1], the “Fold Peak Area Enrichment, Pure compound” value stood at 10.9 ± 1.3; the “Fold Peak Area Enrichment, Standards mixture” value is 20.5 ± 0.51; the “Fold peak area enrichment” value is 20.5 ± 0.51. The same molecule showed an IC50 in series [5] of 37 µg/mL (≈ 103 µM). Moreover, in series [6], the “SARS-CoV-2 viral RNA in cells (anti-dsRNA staining)” value is listed as “absence of SARS-CoV-2 viral RNA”.

Take `CCCCCc1cc(O)c2c(c1)OC(C)(C)[C@@H]1CC=C(C)C[C@@H]21` [Δ^8-THC, Δ^8-Tetrahydrocannabinol]: in series [1], the “Fold Peak Area Enrichment, Standards mixture” value came out at 3.1 ± 0.81; the “Fold peak area enrichment” value is 3.1 ± 0.81; the “binding in competitive binding MagMASS assays” value was “weak or no binding”.

On to `CCCCCc1cc(O)c(C/C=C(\C)CCC=C(C)C)c(OC)c1` [CBG-OMe], for which the “Fold Peak Area Enrichment, Pure compound” value in series [1] was determined as 1.8 ± 0.07.

For the molecule `C=C(C)[C@@H]1CCC(C)=C[C@H]1c1c(O)cc(CCCCC)c(C(=O)O)c1O` [CBDA, Cannabidiolic acid], in series [7], the “bioavailability relative to CBD” value was 2 fold, the serum levels entry is given as “up to 1.42 μM” and the tolerability entry is reported as “well tolerated”. Also, the Kd in series [4] came to 5.6 ± 2.2 µM. For the same molecule, in series [8], the maximum plasma concentrations is 0.21 µM. In series [1], the “Fold Peak Area Enrichment, Extract #5” value is reported as 15.0 ± 0.5; the “Fold Peak Area Enrichment, Pure compound” value amounted to 15.5 ± 1.1; the “Fold Peak Area Enrichment, Standards mixture” value stood at 12.2 ± 0.52; the “Fold peak area enrichment” value worked out at 12.2 ± 0.52. The “substrate of the efflux transporter ABCG2” value in series [2] is “substrate”. In series [5], this molecule came in with a half-maximal inhibitory concentration (IC50) of 24 µg/mL (≈ 66.9 µM). In addition, in series [6], the “SARS-CoV-2 viral RNA in cells (anti-dsRNA staining)” value was “absence of SARS-CoV-2 viral RNA”.

With `Cc1ccc(NC(=O)c2ccc(CN3CCN(C)CC3)cc2)cc1Nc1nccc(-c2cccnc2)n1` [Imatinib, imatinib], in series [1], the “binding to the immobilized S1 protein” value is reported as “no binding”.

What is called Kd is the free concentration of one partner at which half of the binding sites on the other are occupied at equilibrium, for simple one-to-one binding. Read a high Kd as lower affinity. What is called IC50 is the point on the concentration scale where inhibition reaches its midpoint. The low end stands for inhibition by little substance, the high end for a need for much substance.
